Measured values taken from patent US11542225B2, “Lipids for use in lipid nanoparticle formulations” (ACUITAS THERAPEUTICS, INC., priority 2017, dated 2023).
Like-named read-outs stand apart in the source and are kept apart here.

Legend:
[1] = tested on: luciferase expression in the liver; test: Luciferase mRNA in vivo evaluation using lipid nanoparticle compositions; design: species or system mice; details: novel lipids; values marked * in the 1.0 mg/kg column: dosed at 0.5 mg/kg; tail vein injection, 4 hours after administration
[2] = Determination of pKa of formulated lipids (TNS fluorescence assay in lipid nanoparticles); assay type: physicochemical
Excerpt: As described elsewhere, the pKa of formulated lipids was correlated with the effectiveness of LNPs for delivery of nucleic acids (see Jayaraman et al, Angewandte Chemie, International Edition (2012), 51(34), 8529-8533; Semple et al, Nature Biotechnology 28, 172-176 (2010)). In some embodiments, the preferred range of pKa was ˜5 to ˜7. […] Lipid nanoparticles comprising compound of structure (I)/DSPC/cholesterol/PEG-lipid (50/10/38.5/1.5 or 47.5:10:40.8:1.7 mol %) in PBS at a concentration of 0.4 mM total lipid were prepared using the in-line process as described in Example 1. TNS was prepared as a 100 μM stock solution in distilled water. Vesicles were diluted to 24 μM lipid in 2 mL of buffered solutions containing 10 mM HEPES, 10 mM MES, 10 mM ammonium acetate, and 130 mM NaCl, where the pH ranged from 2.5 to 11. An aliquot of the TNS solution was added to give a final concentration of 1 μM and following vortex mixing fluorescence intensity was measured at room temperature in a SLM Aminco Series 2 Luminescence Spectrophotometer using excitation and emission wavelengths of 321 nm and 445 nm. A sigmoidal best fit analysis was applied to the fluorescence data and the pKa was measured as the pH giving rise to half-maximal fluorescence intensity.

[3] = tested on: luciferase expression in the liver; test: Luciferase mRNA in vivo evaluation using lipid nanoparticle compositions; design: species or system mice; details: for Liver Luc @ 0.3 mg/kg (ng luc/g liver) / Liver Luc @ 1.0 mg/kg (ng luc/g liver): novel lipids, tail vein injection, 4 hours after administration; for Liver Luc @ 0.3 mg/kg (ng luc/g liver): 0.3 mg mRNA/kg; for Liver Luc @ 1.0 mg/kg (ng luc/g liver): 1.0 mg mRNA/kg
Experimental: A lipid of structure (I), DSPC, cholesterol and PEG-lipid were solubilized in ethanol at a molar ratio of 50:10:38.5:1.5 or 47.5:10:40.8:1.7. Lipid nanoparticles (LNP) were prepared at a total lipid to mRNA weight ratio of approximately 10:1 to 30:1. Briefly, the mRNA was diluted to 0.2 mg/mL in 10 to 50 mM citrate buffer, pH 4. Syringe pumps were used to mix the ethanolic lipid solution with the mRNA aqueous solution at a ratio of about 1:5 to 1:3 (vol/vol) with total flow rates above 15 mL/min. The ethanol was then removed and the external buffer replaced with PBS by dialysis. Finally, the lipid nanoparticles were filtered through a 0.2 μm pore sterile filter.
Studies were performed in 6-8 week old female C57BL/6 mice (Charles River) 8-10 week old CD-1 (Harlan) mice (Charles River) according to guidelines established by an institutional animal cwere committee (ACC) and the Canadian Council on Animal Cwere (CCAC). Varying doses of mRNA-lipid nanoparticle were systemically administered by tail vein injection and animals euthanized at a specific time point (e.g., 4 hours) post-administration. Liver and spleen were collected in pre-weighed tubes, weights determined, immediately snap frozen in liquid nitrogen and stored at −80° C. until processing for analysis.
For liver, approximately 50 mg was dissected for analyses in a 2 mL FastPrep tubes (MP Biomedicals, Solon Ohio). ¼″ ceramic sphere (MP Biomedicals) was added to each tube and 500 μL of Glo Lysis Buffer—GLB (Promega, Madison Wis.) equilibrated to room temperature was added to liver tissue. Liver tissues were homogenized with the FastPrep24 instrument (MP Biomedicals) at 2×6.0 m/s for 15 seconds. Homogenate was incubated at room temperature for 5 minutes prior to a 1:4 dilution in GLB and assessed using SteadyGlo Luciferase assay system (Promega). Specifically, 50 μL of diluted twassue homogenate was reacted with 50 μL of SteadyGlo substrate, shaken for 10 seconds followed by 5 minute incubation and then quantitated using a CentroXS^3 LB 960 luminometer (Berthold Technologies, Germany). The amount of protein assayed was determined by using the BCA protein assay kit (Pierce, Rockford, Ill.). Relative luminescence units (RLU) were then normalized to total μg protein assayed. To convert RLU to ng luciferase a standard curve was generated with QuantiLum Recombinant Luciferase (Promega).
The FLuc mRNA (L-6107) from Trilink Biotechnologies will express a luciferase protein, originally isolated from the firefly, Photinus pyralwas. FLuc was commonly used in mammalian cell culture to measure both gene expression and cell viability. It emits bioluminescence in the presence of the substrate, luciferin. This capped and polyadenylated mRNA was fully substituted with 5-methylcytidine and pseudouridine.
Compounds of structure (I) were formulated using the following molar ratio: 47.5% cationic lipid/10% dwastearoylphosphatidylcholine (DSPC)/40.8% Cholesterol/1.7% PEG lipid (“PEG-DMA” 2-[2-(ω-methoxy(polyethyleneglycol2000)ethoxy]-N,N-ditetradecylacetamide). Relative activity was determined by measuring luciferase expression in the liver 4 hours following administration via tail vein injection as described in Example 1. The activity was compared at a dose of 0.3 and 1.0 mg mRNA/kg and expressed as ng luciferase/g liver measured 4 hours after administration, as described in Example 1.
The cationic lipids shown in Table 2 have previously been tested with nucleic acids. For comparative purposes, these lipids were also used to formulate lipid nanoparticles containing the FLuc mRNA (L-6107) using an in line mixing method, as described in Example 1 and in PCT/US10/22614, which is hereby incorporated by reference in its entirety. […]

[4] = Table 3, lipid formulated in LNP, TNS assay

Structure (SMILES) | Liver Luc (ng luc/g liver), dosed at 0.5 mg/kg [1] | pKa [2, 4] | Liver Luc @ 0.3 mg/kg (ng luc/g liver) [3] [ng luc/g liver] | Liver Luc @ 1.0 mg/kg (ng luc/g liver) [3] [ng luc/g liver] | pKa [2] | Relative activity in the luciferase assay relative to MC3 ([3]; luciferase expression in liver 4 hours after tail vein injection, 47.5/10/40.8/1.7 formulation with PEG-DMA)
CCCCCCCCC(CCCCCC)COC(=O)CCCCCC(CCCCCC(=O)OCC(CCCCCC)CCCCCCCC)NCCCOCCOCCOCCCN(CCCCCC(=O)OCC(CCCCCC)CCCCCCCC)CCCCCC(=O)OCC(CCCCCC)CCCCCCCC (stereo not shown) [Compound 8] | 479 ± 163* ng luc/g liver | 6.53 | – | – | – | –
CCCCCCCCC(CCCCCC)COC(=O)CCCCCCCN(CCCCCCCC(=O)OCC(CCCCCC)CCCCCCCC)CCCCOCC(O)C(O)COCCCCN(CCCCCCCC(=O)OCC(CCCCCC)CCCCCCCC)CCCCCCCC(=O)OCC(CCCCCC)CCCCCCCC (stereo not shown) [Compound 1] | 174 ± 43* ng luc/g liver | 6.18 | – | – | – | –
CCCCCCC(CCCC)COC(=O)CCCCCN(CCCCCC(=O)OCC(CCCC)CCCCCC)CCCN(C)CCCN(CCCCCC(=O)OCC(CCCC)CCCCCC)CCCCCC(=O)OCC(CCCC)CCCCCC (stereo not shown) [Compound 7] | – | 5.91 | 590 ± 98 | 2473 ± 443 | – | –
CCCCCCCCC(CCCCCC)COC(=O)CCCCCN(CCCCCC(=O)OCC(CCCCCC)CCCCCCCC)CCCOCCOCCOCCCN(CCCCCC(=O)OCC(CCCCCC)CCCCCCCC)CCCCCC(=O)OCC(CCCCCC)CCCCCCCC (stereo not shown) [Compound 3] | – | 5.3 | 33 ± 9 | 99 ± 41 | – | –
CCCCCCCCC(CCCCCC)COC(=O)CCCCCC(CCCCCC(=O)OCC(CCCCCC)CCCCCCCC)NCCCOCCOCCOCCCNC(CCCCCC(=O)OCC(CCCCCC)CCCCCCCC)CCCCCC(=O)OCC(CCCCCC)CCCCCCCC (stereo not shown) [Compound 4] | – | – | – | – | 7.2 | –
CCCCCCCCC(CCCCCC)COC(=O)CCCCCN(CCCCCC(=O)OCC(CCCCCC)CCCCCCCC)CCCN(C)CCCN(CCCCCC(=O)OCC(CCCCCC)CCCCCCCC)CCCCCC(=O)OCC(CCCCCC)CCCCCCCC (stereo not shown) [Compound 6] | – | 5.81 | 92 ± 13 | 169 ± 46 | – | –
CCCCCCCCC(CCCCCC)COC(=O)CCCCCN(CCCCCC(=O)OCC(CCCCCC)CCCCCCCC)CCCOCC(O)C(O)COCCCN(CCCCCC(=O)OCC(CCCCCC)CCCCCCCC)CCCCCC(=O)OCC(CCCCCC)CCCCCCCC (stereo not shown) [Compound 2] | – | – | 1225 ± 159 | 4876 ± 1273 | 6.14 | 4.4
CCCCCCCCC(CCCCCC)C(=O)OCCCCCCCCCC(CCCCCCCCCOC(=O)C(CCCCCC)CCCCCCCC)OC(=O)CCCCNCCCCN(C)CCCCC(=O)OC(CCCCCCCCCOC(=O)C(CCCCCC)CCCCCCCC)CCCCCCCCCOC(=O)C(CCCCCC)CCCCCCCC (stereo not shown) [Compound 5] | – | – | – | – | 4.24 | –
